Consider five compounds from ChEMBL document CHEMBL2429804, “Examination of the phenolic profile and antioxidant activity of the leaves of the Australian native plant Smilax glyciphylla” (J Nat Prod, 2013).

Experiment [1] is described as follows: Antioxidant activity assessed as trolox equivalent of DPPH scavenging activity after 4 mins by spectrophotometry. In kind it is functional.
The nature of experiment [2]: Antioxidant activity assessed as trolox equivalent of ferric ion reducing activity using fe3+-TPTZ after 4 mins by FRAP assay. In kind it is functional.

As to `O=c1c(O)c(-c2ccc(O)cc2)oc2cc(O)cc(O)c12`, the Activity in experiment [1] worked out at 2.4 equiv; in experiment [2], 2.36 equiv.

For the compound `O=c1c(O[C@@H]2O[C@H](CO)[C@@H](O)[C@H](O)[C@H]2O)c(-c2ccc(O)c(O)c2)oc2cc(O)cc(O)c12`, the Activity in experiment [1] and in experiment [2] was 0.56 equiv in each case.

Turning to `Oc1cc(O)c2c(c1)OC(c1ccc(O)c(O)c1)C(O)C2` (stereo not given), the Activity was determined as 0.44 equiv in experiment [1] and 0.56 equiv in experiment [2].

`O=C(CCc1ccc(O)c(O)c1)c1c(O)cc(O)cc1O`: the Activity was found to be 0.88 equiv in experiment [1] and 0.64 equiv in experiment [2].

`C[C@@H]1O[C@@H](Oc2cc(O)cc(O)c2C(=O)CCc2ccc(O)c(O)c2)[C@H](O)[C@H](O)[C@H]1O`: the Activity was 0.48 equiv in experiment [1] and 0.72 equiv in experiment [2].
